Test results as given in patent US12459952B2, “TREM2 modulators” (Muna Therapeutics ApS, priority 2024, dated 2025).

Biological target: T1, Human TREM2 (Homo sapiens, UniProt Q9NZC2)
T1 construct: expressed in transfected cells
Test: Human TREM2 cellular phospho-Syk AlphaLISA assay in HEK293/DAP12+TREM2 stable cell line
Format: cell-based
Settings: HEK293/DAP12+TREM2 cells; for Emax: maximal response relative to the maximal response of the reference agonist, phospho-Syk AlphaLISA; for EC50: phospho-Syk (Tyr525/526) AlphaLISA signal, 30 min incubation
Text: Human TREM2, in vitro Measurement of Triggering Receptor Expressed on Myeloid Cells 2 activity using cellular phosphorylation of Spleen Tyrosine Kinase (“Syk”) Assay
HEK-293 cells were co-transfected with separate plasmids encoding TREM2 and DAP12 to generate a stable cell line. After antibiotic selection, functional clone pool analysis and two successive limiting dilutions, the final clone “HEK293/DAP12+TREM2” underwent a qPCR analysis and a pharmacological validation.
TREM2 signaling through DAP12 was monitored in the HEK293/DAP12+TREM2 stable cell line by measuring the phosphorylation levels of the Syk kinase using the commercially available AlphaLISA SureFire Ultra p-SYK (Tyr525/526) Assay Kit (PerkinElmer #ALSU-PSYK), based on the Perkin Elmer AlphaScreen/AlphaLISA technology.
Compounds are transferred to the test plate and tested in full dose response, 8 concentrations in quadruplicate data points. Compound serial dilutions were performed at Cybi-Felix instrument in 100% DMSO and the dose response curves were assembled in automated fashion in 384MPT at Hamilton STARlet instrument. All the stock solutions were prepared at 20 mM in 100% DMSO. For compounds testing, the starting concentration was 100 μM, dilution steps 1:6. A different concentration's range was adapted for compound's activity based on the preliminary results. Finally, a 384MPT reformatted for all compounds at 8 concentrations, quadruplicates, was used as “mother to child” process with a CyBi@-Well dispenser in which 1 μL of each compound was moved into a destination plate pre-filled with […] of EMEM cell culture medium (BIOWHITTAKER_cat.BE12-125F), thus obtaining 3× concentrated compounds working solution. In columns 1-2 and 23-24 the control wells were added. In particular, dose response curves of a reference control agonist were included in column 1 and 24 as reference control agonist (Reference control agonists used include Human TREM2 polyclonal Antibody AF1828: R&D Systems; Human TREM2 monoclonal Antibody MAB1828: R&D Systems). The dose response curves were tested starting at 30 μM, dilution step 1:6. Both “source” compound plate and “destination” compound plate were barcoded and a relationship between the two plates was thus generated.
HEK293/DAP12+TREM2 cells were cultured in EMEM medium supplemented with IX Penicillin/Streptomycin (BIOWHITTAKER_cat.DE17-602E), ULTRAGLUTAMINE I 200 mM, 10% Fetal Bovine Serum plus antibiotics referred to as “HEK293 Culture Medium”. The day before the experiment, cells were detached by gentle wash with DPBS, followed by 5 min incubation at 37° C. with Trypsin solution. Cells were then diluted in HEK293 Culture Medium without antibiotics, counted and seeded into 384-well poly-D-Lysine coated microplates black/clear bottom (GREINER 781946) at a density of 10,000 cells/well in 25 μL/well by the use of a MATRIX WellMate dispenser. Plates were placed into a humidified cell culture incubator at 37° C. with 5% CO2 until the experimental day. 20-24 hours after seeding mature medium was removed and replaced with 10 μL/well of EMEM cell medium supplemented with 0.1% Pluronic F-68 non-ionic surfactant (Thermofisher, 24040032), referred to as “Assay Buffer”, using the CyBi@-Well instrument. Then 5 μL/well of Assay Buffer containing 3× concentrated test compounds or the reference control agonist (in 0.5% final DMSO concentration) were added to the cells with the CyBi@-Well instrument. Cell plates were incubated for 30 min into a humidified cell culture incubator at 37° C. with 5% CO2, then the medium was removed by manually discard. 20 μL/well of lysis buffer were dispensed using the CyBi@-Well instrument and plates were incubated for 10 min at room temperature on a plate shaker (350 rpm). Then, 10 μL/well of lysate were transferred to the Alpha plates.
The CyBi@-Well instrument was used to dispense 5 μL/well of AlphaLISA Acceptor Bead Solution in IX Immunoassay buffer (Perkin Elmer AL000F). […]

T1 sequence (Q9NZC2 19-230): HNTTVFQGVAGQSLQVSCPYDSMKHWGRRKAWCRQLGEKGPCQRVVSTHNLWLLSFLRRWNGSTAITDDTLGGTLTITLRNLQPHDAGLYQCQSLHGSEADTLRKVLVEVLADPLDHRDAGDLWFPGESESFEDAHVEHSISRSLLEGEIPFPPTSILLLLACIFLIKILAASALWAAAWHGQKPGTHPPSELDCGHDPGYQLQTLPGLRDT
T1 sequence (O43914 22-113 partner): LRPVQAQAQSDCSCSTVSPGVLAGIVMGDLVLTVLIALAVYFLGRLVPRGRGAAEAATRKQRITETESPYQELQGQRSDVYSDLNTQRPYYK

Cc1nn(C)cc1OC1CN(c2nc(-c3ccc(C#N)cc3F)c3nc(C(F)(F)F)n(C)c(=O)c3n2)C1 [Example 10, 4-(2-(3-((1,3-dimethyl-1H-pyrazol-4-yl)oxy)azetidin-1-yl)-7-methyl-8-oxo-6-(trifluoromethyl)-7,8-dihydropyrimido[5,4-d]pyrimidin-4-yl)-3-fluorobenzonitrile] was tested, and the Emax was < 75% and the EC50 was 100 to 1000 nM.
Cn1c(C(F)(F)F)nc2c(-c3ccc(C#N)cc3F)nc(N3CC(Oc4cnn(CC(F)F)c4)C3)nc2c1=O [Example 17, 4-(2-(3-((1-(2,2-difluoroethyl)-1H-pyrazol-4-yl)oxy)azetidin-1-yl)-7-methyl-8-oxo-6-(trifluoromethyl)-7,8-dihydropyrimido[5,4-d]pyrimidin-4-yl)-3-fluorobenzonitrile] showed an Emax of 75 to 110% and an EC50 of 100 to 1000 nM.
With Cn1c(C(F)(F)F)nc2c(-c3ccc(F)cc3F)nc(N3CC(Oc4cnn(C5CC5)c4)C3)cc2c1=O [Example 40, 6-(3-((1-cyclopropyl-1H-pyrazol-4-yl)oxy)azetidin-1-yl)-8-(2,4-difluorophenyl)-3-methyl-2-(trifluoromethyl)pyrido[3,4-d]pyrimidin-4(3H)-one] the Emax was < 75% and the EC50 was 100 to 1000 nM.
COc1cc(OC2CN(c3nc(-c4ccc(C#N)cc4F)c4nc(C(F)(F)F)n(C)c(=O)c4n3)C2)ccn1 [Example 21, 3-fluoro-4-(2-(3-((2-methoxypyridin-4-yl)oxy)azetidin-1-yl)-7-methyl-8-oxo-6-(trifluoromethyl)-7,8-dihydropyrimido[5,4-d]pyrimidin-4-yl)benzonitrile] was tested, and the Emax was 75 to 110% and the EC50 was < 10 nM.
Compound CN(c1cnn(C2CC2)c1)C1CN(c2nc(-c3ccc(F)cc3F)c3nc(C(F)(F)F)n(C)c(=O)c3n2)C1 [Example 33, 6-(3-((1-cyclopropyl-1H-pyrazol-4-yl)(methyl)amino)azetidin-1-yl)-8-(2,4-difluorophenyl)-3-methyl-2-(trifluoromethyl)pyrimido[5,4-d]pyrimidin-4(3H)-one] has an Emax of 75 to 110% and an EC50 of 100 to 1000 nM.
